Legend:
Assay in all cases: drug sensitivity score (DSS2, normalised partial AUC of dose-response, 72 h CellTiter-Glo viability) (DSS (dimensionless)); higher = more sensitive (stronger growth inhibition / cytotoxicity); extreme values may be limits of the assay
CAF#7 = test system: CAF#7 (primary prostate cancer-associated fibroblasts of myCAF-like type)
Outline: (§1)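 Cells were added to 384-well plates already holding compounds at five doses over a 10,000-fold range: low-passage primary prostate cancer-associated fibroblasts, PF179T, WPMY-1, LNCaP and 22Rv1. Viability was measured 72 h later by CellTiter-Glo 2.0 luminescence and scaled to vehicle and positive-control wells. The drug sensitivity score, computed in BREEZE, is a partial area under the fitted logistic dose–response curve divided by the log of its upper asymptote, with higher scores meaning greater sensitivity.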

CAF#5 = test system: CAF#5 (primary prostate cancer-associated fibroblasts of myCAF-like type)
Outline: as §1

CAF#1 = test system: CAF#1 (primary prostate cancer-associated fibroblasts of myCAF-like type)
Outline: as §1

CAF#4 = test system: CAF#4 (primary prostate cancer-associated fibroblasts of iCAF-like type)
Outline: as §1

LNCAP = test system: LNCAP
Outline: as §1

CAF#2 = test system: CAF#2 (primary prostate cancer-associated fibroblasts of iCAF-like type)
Outline: as §1

PF179T = test system: PF179T
Outline: as §1

22Rv1 = test system: 22Rv1
Outline: as §1

CAF#3 = test system: CAF#3 (primary prostate cancer-associated fibroblasts of myCAF-like type)
Outline: as §1

CAF#6 = test system: CAF#6 (primary prostate cancer-associated fibroblasts of iCAF-like type)
Outline: as §1

WPMY-1 = test system: WPMY-1
Outline: as §1

| SMILES | drug sensitivity score (CAF#7) | drug sensitivity score (CAF#5) | drug sensitivity score (CAF#1) | drug sensitivity score (CAF#4) | drug sensitivity score (LNCAP) | drug sensitivity score (CAF#2) | drug sensitivity score (PF179T) | drug sensitivity score (22Rv1) | drug sensitivity score (CAF#3) | drug sensitivity score (CAF#6) | drug sensitivity score (WPMY-1) |
| --- | --- | --- | --- | --- | --- | --- | --- | --- | --- | --- | --- |
| NC1(C(=O)N[C@@H](CCO)c2ccc(Cl)cc2)CCN(c2nc[nH]c3nccc2-3)CC1 [Capivasertib] (tested concentration range 1-10000 nM) | 2.4 | 3.6 | 4.5 | 0.3 | 23.5 | 4.1 | 4.6 | 7.2 | 0 | 2.7 | 3 |
| CN1CCN(c2ccc3nc(-c4c(N)c5c(F)cccc5[nH]c4=O)[nH]c3c2)CC1 [Dovitinib] (tested concentration range 1-10000 nM) | 0 | 0.8 | 0.2 | 0 | 0.3 | 2.6 | 0 | 0.2 | 0.7 | 0 | 0 |
| N#CC1(c2ccc(NC(=O)c3cccnc3NCc3ccncc3)cc2)CCCC1 [Apatinib] (tested concentration range 1-10000 nM) | 2.2 | 0 | 0 | 0 | 5.8 | 0 | 0 | 0 | 1.8 | 2.6 | 0 |
| CC(=O)O[C@@]12CO[C@@H]1C[C@H](O)[C@@]1(C)C(=O)[C@H](O)C3=C(C)[C@@H](OC(=O)[C@H](O)[C@@H](NC(=O)OC(C)(C)C)c4ccccc4)C[C@@](O)([C@@H](OC(=O)c4ccccc4)[C@H]21)C3(C)C [Docetaxel] (tested concentration range 0.1-1000 nM) | 25.6 | 17.2 | 16.4 | 14.2 | 34.6 | 20.6 | 19.7 | 25.4 | 12.8 | 16.7 | 28.3 |
| CC(C)[C@@H](CS(=O)(=O)C(C)C)N1C(=O)[C@@](C)(CC(=O)O)C[C@H](c2cccc(Cl)c2)[C@H]1c1ccc(Cl)cc1 [KRT-232] (tested concentration range 1-10000 nM) | 12.7 | 10.9 | 13.7 | 8.6 | 21.4 | 14.7 | 14.2 | 10 | 6.3 | 11.9 | 0 |
| CNC(=O)c1ccc(N2C(=S)N(c3ccc(C#N)c(C(F)(F)F)c3)C(=O)C2(C)C)cc1F [Enzalutamide] (tested concentration range 1-10000 nM) | 0 | 2.8 | 3.9 | 2.2 | 2.6 | 2.3 | 0.4 | 0 | 0 | 0.5 | 0 |
| COc1cc2c(NC3CCN(C(C)C)CC3)nc(N3CCC(F)(F)CC3)nc2cc1OCCCN1CCCC1 [UNC0642] (tested concentration range 1-10000 nM) | 1.9 | 0 | 0 | 0 | 4.5 | 0 | 0 | 5.8 | 0 | 0.7 | 4.8 |
| O=C(Nc1cccc(NC(=O)c2cccc(O)c2O)c1)c1cccc(O)c1O [MST-312] (tested concentration range 1-10000 nM) | 11.6 | 13.5 | 12.8 | 12.9 | 15.6 | 15.3 | 10.7 | 10.3 | 8.9 | 10.5 | 10.2 |
| Cc1cc(Nc2ncc(Cl)c(Nc3ccccc3S(=O)(=O)C(C)C)n2)c(OC(C)C)cc1C1CCNCC1 [Ceritinib] (tested concentration range 0.2-2500 nM) | 2.3 | 2.6 | 4.6 | 2.4 | 4.2 | 5.1 | 0.9 | 3.1 | 3 | 1.2 | 1 |
| CNc1nc(-c2ccc3c(N)n[nH]c3c2)cc(N2C[C@@H](C(=O)NC3CCCCC3)CC[C@H]2C)n1 (tested concentration range 1-10000 nM) | 3.8 | 5.8 | 4 | 2.4 | 7.5 | 1.1 | 0 | 6.4 | 6.6 | 4 | 1.4 |
| C=CC[C@@H]1/C=C(\C)C[C@H](C)C[C@H](OC)[C@H]2O[C@@](O)(C(=O)C(=O)N3CCCC[C@H]3C(=O)O[C@H](/C(C)=C/[C@@H]3CC[C@@H](O)[C@H](OC)C3)[C@H](C)[C@@H](O)CC1=O)[C@H](C)C[C@@H]2OC [Tacrolimus] (tested concentration range 1-10000 nM) | 2 | 0.9 | 0.9 | 0 | 6.8 | 2.7 | 0 | 2.3 | 0.2 | 2.3 | 1 |
| Nc1cc(F)ccc1NC(=O)/C=C/c1cnn(C/C=C/c2ccccc2)c1 [RGFP966] (tested concentration range 1-10000 nM) | 2.7 | 3.1 | 3.1 | 3.3 | 8.3 | 3.2 | 3.8 | 1.8 | 2.6 | 2.1 | 2.2 |
| NCC(=O)Nc1ccc(-n2nc(C(F)(F)F)cc2-c2ccc3c(ccc4ccccc43)c2)cc1 (tested concentration range 2.5-25000 nM) | 0 | 0 | 0.7 | 0.8 | 1.4 | 0 | 0 | 0 | 0 | 0 | 4.4 |
| O=C(Nc1cccc(Nc2ncc(Br)c(NCCc3cnc[nH]3)n2)c1)N1CCCC1 [BX-912] (tested concentration range 1-10000 nM) | 10 | 8.1 | 6.1 | 3.1 | 3.5 | 7.5 | 7.6 | 1.9 | 7.6 | 6.2 | 9.9 |
| C=CCn1c(=O)c2cnc(Nc3ccc(N4CCN(C)CC4)cc3)nc2n1-c1cccc(C(C)(C)O)n1 [Adavosertib] (tested concentration range 1-10000 nM) | 7.3 | 5.9 | 7.3 | 8.9 | 17 | 10.3 | 10.4 | 11.9 | 2.7 | 4 | 21.5 |
| C[C@@H](Nc1cc(F)cc(F)c1)c1cc(C(=O)N(C)C)cc2c(=O)cc(N3CCOCC3)oc12 [AZD-8186] (tested concentration range 0.1-1000 nM) | 3.9 | 2.8 | 2.9 | 2.8 | 12.7 | 3.4 | 6.3 | 1 | 4.2 | 2.2 | 1 |
| O=C1CN2Cc3c(ccc(Cl)c3Cl)N=C2N1 [Anagrelide] (tested concentration range 1-10000 nM) | 8.8 | 0.6 | 8.4 | 0 | 0 | 0.6 | 0 | 0 | 7.2 | 0 | 0 |
| Cc1c(F)cc(C(=O)NC2CC2)cc1-c1ccc(C(=O)NCC(C)(C)C)cn1 [Losmapimod] (tested concentration range 1-10000 nM) | 0 | 0 | 0 | 0 | 3.7 | 0 | 0 | 0 | 0 | 0 | 0 |
| Cc1ncc(-c2ccnc(Nc3ccc(S(C)(=O)=O)cc3)n2)n1C(C)C [AZD-5438] (tested concentration range 1-10000 nM) | 5.6 | 2.9 | 4.1 | 6.8 | 10.2 | 3.9 | 2.5 | 7.6 | 4 | 3 | 8.7 |
| Cc1[nH]nc(C(F)(F)F)c1Cc1sc2c(c1C(=O)N1C[C@](C)(O)CO1)c(=O)n(C)c(=O)n2C(C)C [AZD3965] (tested concentration range 0.1-1000 nM) | 0 | 0 | 0.1 | 0 | 10.5 | 0.1 | 0 | 0 | 0 | 0 | 0 |
| COc1ccc(C[C@H](NC(=O)[C@H](C)NC(=O)CN2CCOCC2)C(=O)N[C@@H](Cc2ccccc2)C(=O)C2(C)CO2)cc1 (stereo in doubt) [ONX-0914] (tested concentration range 1-10000 nM) | 15.6 | 18.3 | 14 | 10.3 | 19.3 | 16 | 14.8 | 18 | 15.5 | 15 | 23.4 |
| CCOCc1nc2c(N)nc3ccccc3c2n1CC(C)(C)O [Resiquimod] (tested concentration range 1-10000 nM) | 0 | 0 | 0 | 0 | 0 | 0.4 | 0 | 0 | 0 | 0 | 0 |
| COc1cc(Nc2ncc3c(n2)-c2ccc(Cl)cc2C(c2c(F)cccc2OC)=NC3)ccc1C(=O)O [Alisertib] (tested concentration range 1-10000 nM) | 3.5 | 6 | 4.9 | 4.5 | 9.6 | 9.4 | 7.6 | 0 | 3.3 | 1.2 | 16.3 |
| C[C@]1(c2nc3c(C(N)=O)cccc3[nH]2)CCCN1 [Veliparib] (tested concentration range 1-10000 nM) | 1.2 | 0 | 1.2 | 0 | 0.7 | 1.5 | 0.5 | 1.4 | 2.6 | 1.7 | 0.8 |
| C[C@@H]1CN(CC(=O)Nc2ccc3c(c2)Cc2cccc(-c4cc(=O)cc(N5CCOCC5)o4)c2S3)C[C@H](C)O1 (tested concentration range 2.5-25000 nM) | 0 | 0 | 0 | 0 | 6.7 | 0.4 | 0.4 | 2.5 | 0.2 | 0.2 | 4.2 |
